Columns and labels:
[1] = target: T1, hFASN enzyme (full length) (Homo sapiens, UniProt P49327); experiment: Fatty Acid Synthase (FASN) Inhibition Scintillation Proximity Assay; format: biochemical; conditions: for IC50: mean where tested more than once, ~ = standard error of pIC50 larger than 0.5; for inhibition at 10 µM: read-out: FASN % Effect @1E−05M
T1 construct: 10 μL hFASN enzyme (full length, 300 ng, purified in house); made in house
Procedure: In this assay, inhibition of FASN activity is measured using ^3H-acetyl-CoA and malonyl-CoA as substrates. ^3H-Acetyl CoA is converted to ^3H-palmitate through a series of reactions by the FASN protein, which contains 7 functional domains and carries out 7 enzymatic reactions to ultimately produce ^3H-palmitate. The assay principle is based upon the fact that ^3H-acetyl-CoA is hydrophilic and the end product, ^3H-palmitate is hydrophobic.
10 μL assay buffer (100 mM KH2PO4 pH 7.5, 1 mM DTT) (20 μL in blanks) was added to a 384-well white Opti Plate plate (Perkin Elmer). 0.9 μL test compound (at concentrations of 30 μM, 10 μM, 3 μM, 1 μM, 0.30 μM, 0.10 μM, 0.03 μM and 0.01 μM)/DMSO and 10 μL hFASN enzyme (full length, 300 ng, purified in house) or 10 μL assay buffer was added to the wells. Then 10 μL 450 μM NADPH (Sigma N7505), 18.75 μM [^3H]-acetyl-CoA (Perkin Elmer NET-290L), 150 μM malonyl-CoA (Sigma M4263) were added, mixed and incubated at room temperature for 60 minutes. The reaction was stopped by adding 20 μL Streptavidin coupled imaging beads (25 mg/ml). After incubation for 30 minutes at room temperature in the dark, the 384 well plate was centrifuged at 1500 rpm for 3 minutes and was measured after at least 24 hrs by the LEADseeker™, measuring emission using a 610±20 nm pass filter. (Bays, N. W., et al., “A simplified scintillation proximity assay for fatty acid synthase activity: development and comparison with other FAS activity assays”, J. Biomol. Screen, 2009, pp 636-642, Vol. 14(6).)
(§1) Raw data generated by the instrument were normalized to % Controlmin values, which were calculated as: % Controlmin=100*(x−mLC)/(mHC−mLC)
(§2) where mLC and mHC were the means of the low control wells and high control wells on the plate, after manual exclusion of outliers. A plot of Controlmin versus test compound concentration was fitted to a 4-parameter logistic curve using a non-linear least squares regression method. From the plot, an IC50 (concentration at which 50% inhibition is achieved) was calculated. pIC50 values were calculated as −log(IC50), when IC50 is expressed in molar units.

[2] = target: T2, FASN Keto-reductase Domain (Homo sapiens, UniProt P49327); experiment: Fatty Acid Synthase Keto-Reductase Domain (FASN KR) Inhibition; format: biochemical; conditions: mean where tested more than once; read-out: FASN K-R Domain pIC50 (converted)
T2 construct: 10 μL hFASN enzyme (full length, 300 ng, purified in house) and 360 μM NADPH; made in house
T2 sequence (P49327 whole entry, the tested form may be a part): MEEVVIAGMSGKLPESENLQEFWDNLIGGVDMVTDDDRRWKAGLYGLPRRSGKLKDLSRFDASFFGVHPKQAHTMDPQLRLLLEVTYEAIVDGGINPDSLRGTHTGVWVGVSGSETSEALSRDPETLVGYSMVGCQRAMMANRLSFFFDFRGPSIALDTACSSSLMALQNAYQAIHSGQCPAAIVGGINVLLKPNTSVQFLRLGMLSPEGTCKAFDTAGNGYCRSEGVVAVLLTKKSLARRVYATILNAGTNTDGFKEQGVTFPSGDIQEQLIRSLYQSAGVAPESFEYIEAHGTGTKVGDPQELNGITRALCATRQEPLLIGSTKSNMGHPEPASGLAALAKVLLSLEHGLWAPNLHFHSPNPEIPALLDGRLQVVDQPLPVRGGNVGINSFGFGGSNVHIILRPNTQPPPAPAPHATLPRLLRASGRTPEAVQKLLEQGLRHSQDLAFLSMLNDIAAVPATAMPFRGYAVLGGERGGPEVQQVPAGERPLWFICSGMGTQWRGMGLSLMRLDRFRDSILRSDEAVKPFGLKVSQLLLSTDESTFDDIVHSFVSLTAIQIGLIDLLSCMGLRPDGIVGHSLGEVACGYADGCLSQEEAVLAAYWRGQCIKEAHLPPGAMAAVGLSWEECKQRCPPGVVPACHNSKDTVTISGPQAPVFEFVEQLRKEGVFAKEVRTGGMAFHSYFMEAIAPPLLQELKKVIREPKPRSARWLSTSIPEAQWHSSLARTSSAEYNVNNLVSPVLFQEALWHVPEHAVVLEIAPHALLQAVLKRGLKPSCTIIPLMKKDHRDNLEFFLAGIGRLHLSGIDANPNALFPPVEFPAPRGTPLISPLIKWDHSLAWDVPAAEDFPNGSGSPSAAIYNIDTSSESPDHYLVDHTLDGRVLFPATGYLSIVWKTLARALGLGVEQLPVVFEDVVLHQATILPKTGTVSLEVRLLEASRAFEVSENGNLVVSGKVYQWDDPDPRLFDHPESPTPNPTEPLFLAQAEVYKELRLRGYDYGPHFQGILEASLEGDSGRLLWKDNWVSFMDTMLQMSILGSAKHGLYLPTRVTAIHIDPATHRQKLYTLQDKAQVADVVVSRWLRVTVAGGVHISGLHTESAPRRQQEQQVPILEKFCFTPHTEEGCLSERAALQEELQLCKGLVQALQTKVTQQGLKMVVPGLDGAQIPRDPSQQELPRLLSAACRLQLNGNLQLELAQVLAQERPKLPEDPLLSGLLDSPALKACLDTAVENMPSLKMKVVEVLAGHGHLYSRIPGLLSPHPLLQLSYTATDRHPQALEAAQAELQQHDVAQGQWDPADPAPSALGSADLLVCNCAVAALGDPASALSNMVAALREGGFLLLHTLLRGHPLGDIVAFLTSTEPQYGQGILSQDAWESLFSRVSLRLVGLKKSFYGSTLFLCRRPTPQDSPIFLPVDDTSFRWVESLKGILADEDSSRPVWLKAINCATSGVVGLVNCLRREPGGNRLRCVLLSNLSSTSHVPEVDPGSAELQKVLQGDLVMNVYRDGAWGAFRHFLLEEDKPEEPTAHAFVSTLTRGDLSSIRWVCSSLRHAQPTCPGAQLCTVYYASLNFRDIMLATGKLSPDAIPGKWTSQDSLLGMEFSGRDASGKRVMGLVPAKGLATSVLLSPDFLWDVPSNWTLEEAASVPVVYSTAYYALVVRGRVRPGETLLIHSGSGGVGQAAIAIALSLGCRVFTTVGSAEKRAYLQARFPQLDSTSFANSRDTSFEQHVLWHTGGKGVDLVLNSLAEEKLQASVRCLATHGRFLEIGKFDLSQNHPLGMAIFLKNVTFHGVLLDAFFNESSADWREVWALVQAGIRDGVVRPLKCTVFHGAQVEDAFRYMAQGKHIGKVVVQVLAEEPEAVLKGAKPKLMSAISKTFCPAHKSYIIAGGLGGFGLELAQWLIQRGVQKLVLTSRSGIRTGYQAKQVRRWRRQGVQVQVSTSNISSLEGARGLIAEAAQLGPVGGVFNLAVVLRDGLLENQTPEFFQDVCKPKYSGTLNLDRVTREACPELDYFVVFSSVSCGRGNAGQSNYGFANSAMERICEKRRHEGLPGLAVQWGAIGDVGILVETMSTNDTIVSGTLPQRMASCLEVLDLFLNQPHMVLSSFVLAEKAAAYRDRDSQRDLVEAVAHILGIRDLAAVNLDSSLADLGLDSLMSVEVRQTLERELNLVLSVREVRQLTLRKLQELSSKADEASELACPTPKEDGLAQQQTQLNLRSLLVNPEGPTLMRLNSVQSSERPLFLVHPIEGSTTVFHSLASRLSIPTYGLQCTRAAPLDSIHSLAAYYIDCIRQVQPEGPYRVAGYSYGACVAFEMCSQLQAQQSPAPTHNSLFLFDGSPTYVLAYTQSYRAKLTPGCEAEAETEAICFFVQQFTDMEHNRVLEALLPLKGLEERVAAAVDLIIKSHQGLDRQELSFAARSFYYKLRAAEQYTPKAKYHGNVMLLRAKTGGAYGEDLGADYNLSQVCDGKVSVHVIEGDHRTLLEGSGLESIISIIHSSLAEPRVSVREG
Procedure: 10 μL assay buffer (100 mM KH2PO4 pH 7.5) was added to a 384-well clear plate (costar 3702). 0.3 μL compound (at concentrations of 30 μM, 10 μM, 3 μM, 1 μM, 0.30 μM, 0.10 μM, 0.03 μM and 0.01 μM)/DMSO, 10 μL hFASN enzyme (full length, 300 ng, purified in house) and 360 μM NADPH (except in blank) were then added. Then, 10 μL 180 mM ethyl acetoacetate (Aldrich 688983) was added, mixed and immediately thereafter, the absorbance at 340 nm (T1) by Multiscan (Labsystems) was measured. After 20 minutes incubation at room temperature the plate was measured again (T2).
The decrease in absorbance was calculated as (Absorbance before incubation T1)−(Absorbance following incubation T2).
as §1, §2

T1 sequence (P49327 whole entry): as the sequence (P49327 whole entry, the tested form may be a part) above

IC50 [1] [µM] | inhibition at 10 µM [1] [%] | IC50 [2] [µM] | SMILES
> 30.2 | 30 | 17 | Cc1ccc(C(=O)N2CCC(c3ccc4nccn4c3)CC2)cc1NC(=O)c1ccc(Cl)nc1 [Compound 14, 6-chloro-N-(5-(4-(imidazo[1,2-a]pyridin-6-yl)piperidine-1-carbonyl)-2-methylphenyl)nicotinamide]
~12.9 | 51 | 8.13 | Cc1ccc(C(=O)N2CCC(c3ccc4nccn4c3)CC2)cc1NC(=O)c1ccc(NC(C)C)nc1 [Compound 17, N-(5-(4-(imidazo[1,2-a]pyridin-6-yl)piperidine-1-carbonyl)-2-methylphenyl)-6-(isopropylamino)nicotinamide]
> 30.2 | 2 | > 30.2 | Cc1ccc(C(=O)N2CCC(c3ccc4nncn4c3)CC2)cc1NC(=O)c1ccc(Cl)nc1 [Compound 18, N-(5-(4-([1,2,4]triazolo[4,3-a]pyridin-6-yl)piperidine-1-carbonyl)-2-methylphenyl)-6-chloronicotinamide]
6.61 | 50 | 5.5 | Cc1ccc(C(=O)N2CCC(c3ccc4c(c3)CN(C)C4=O)CC2)cc1NC(=O)c1ccc(NC(C)C)nc1 [Compound 19, 6-(isopropylamino)-N-(2-methyl-5-(4-(2-methyl-1-oxoisoindolin-5-yl)piperidine-1-carbonyl)phenyl)nicotinamide]
~30.2 | 30 | – | Cc1ccc(C(=O)N2CCC(c3ccc4nncn4c3)CC2)cc1NC(=O)c1ccc(NC(C)C)nc1 [Compound 20, N-(5-(4-([1,2,4]triazolo[4,3-a]pyridin-6-yl)piperidine-1-carbonyl)-2-methylphenyl)-6-(isopropylamino)nicotinamide]
27.5 | 22 | 13.2 | Cc1ccc(C(=O)N2CCC(c3ccc4c(c3)C(C)N(C)C4=O)CC2)cc1NC(=O)c1ccc(Cl)nc1 (stereo not shown) [Compound 21, 6-chloro-N-(5-(4-(2,3-dimethyl-1-oxoisoindolin-5-yl)piperidine-1-carbonyl)-2-methylphenyl)nicotinamide]
4.9 | 60 | 7.94 | Cc1ccc(C(=O)N2CCC(c3ccc4c(c3)C(C)N(C)C4=O)CC2)cc1NC(=O)c1ccc(NC(C)C)nc1 (stereo not shown) [Compound 22, N-(5-(4-(2,3-dimethyl-1-oxoisoindolin-5-yl)piperidine-1-carbonyl)-2-methylphenyl)-6-(isopropylamino)nicotinamide]
2.29 | 74 | – | Cc1ccc(C(=O)N2CCC(c3ccc4ncsc4c3)CC2)cc1NC(=O)c1ccc(NC(C)C)nc1 [Compound 46, N-(5-(4-(benzo[d]thiazol-6-yl)piperidine-1-carbonyl)-2-methylphenyl)-6-(isopropylamino)nicotinamide]
~7.76 | 60 | – | Cc1ccc(C(=O)N2CCC(c3ccc4ncsc4c3)CC2)cc1NC(=O)c1ccc(Cl)nc1 [Compound 47, N-(5-(4-(benzo[d]thiazol-6-yl)piperidine-1-carbonyl)-2-methylphenyl)-6-chloronicotinamide]
> 10 | 41 | – | Cc1ccc(C(=O)N2CC(O)(c3ccc(-c4ccnn4C)cc3)C2)cc1NC(=O)c1ccc(Cl)nc1 [Compound 107, 6-chloro-N-(5-(3-hydroxy-3-(4-(1-methyl-1H-pyrazol-5-yl)phenyl)azetidine-1-carbonyl)-2-methylphenyl)nicotinamide]
0.0209 | 110 | 0.0417 | Cc1ccc(C(=O)N2CCC(c3ccc(-c4cnn(C)c4)cc3)CC2)cc1NC(=O)c1ccc(N2CCN[C@H](CO)C2)nc1 [Compound 164, (3S)-6-(3-(hydroxymethyl)piperazin-1-yl)-N-(2-methyl-5-(4-(4-(1-methyl-1H-pyrazol-4-yl)phenyl)piperidine-1-carbonyl)phenyl)nicotinamide]
> 10 | 17 | – | Cc1ccc(C(=O)N2CC(c3ccc(-c4cnn(C)c4)cc3)C2)cc1NC(=O)C1CCCC1 [Compound 226, N-(2-methyl-5-(3-(4-(1-methyl-1H-pyrazol-4-yl)phenyl)azetidine-1-carbonyl)phenyl)cyclopentanecarboxamide]
2.45 | 63 | – | Cc1ccc(C(=O)N2CCC(c3ccc(-c4cnn(C)c4)cc3)CC2)cc1NC(=O)c1nccn1C [Compound 227, 1-methyl-N-(2-methyl-5-(4-(4-(1-methyl-1H-pyrazol-4-yl)phenyl)piperidine-1-carbonyl)phenyl)-1H-imidazole-2-carboxamide]
4.07 | 61 | – | Cc1ccc(C(=O)N2CCC(c3ccc(-c4cnn(C)c4)cc3)CC2)cc1NC(=O)c1nc(C(C)(C)C)cs1 [Compound 229, 4-(tert-butyl)-N-(2-methyl-5-(4-(4-(1-methyl-1H-pyrazol-4-yl)phenyl)piperidine-1-carbonyl)phenyl)thiazole-2-carboxamide]
~2 | 63 | – | Cc1ccc(-c2ccc(C3CCN(C(=O)c4ccc(C)c(NC(=O)c5ccc(NC(C)C)nc5)c4)CC3)cc2)cc1 [Compound 234, 6-(isopropylamino)-N-(2-methyl-5-(4-(4′-methyl-[1,1′-biphenyl]-4-yl)piperidine-1-carbonyl)phenyl)nicotinamide]
4.47 | 62 | – | CN(C(=O)C1CC1)c1ccc(C(=O)N2CCC(c3ccc(-c4cnn(C)c4)cc3)CC2)cc1NC(=O)C1CC1 [Compound 277, N-(2-(cyclopropanecarboxamido)-4-(4-(4-(1-methyl-1H-pyrazol-4-yl)phenyl)piperidine-1-carbonyl)phenyl)-N-methylcyclopropanecarboxamide]
> 10 | – | – | COCCN(C(=O)C1CC1)c1ccc(C(=O)N2CCC(c3ccc(-c4cnn(C)c4)cc3)CC2)cc1NC(=O)C1CC1 [Compound 291, N-(2-(cyclopropanecarboxamido)-4-(4-(4-(1-methyl-1H-pyrazol-4-yl)phenyl)piperidine-1-carbonyl)phenyl)-N-(2-methoxyethyl)cyclopropanecarboxamide]
